# According to paper PMC8900464 (Journal of medicinal chemistry, 2022):
# “Also recorded” adds a separate entry of the source.
# Legend:
# total AKT (T-AKT) = test: Immunoblotting of total AKT in BT474 cells; type: cell-based; settings: 24 h, western blot
# [1] = tested on: P-AKT (S473), P-PRAS40 (T246), P-S6 (S240/244); test: Immunoblotting of P-AKT and downstream signaling in BT474 cells; type: cell-based; settings: 24 h; for downstream signaling inhibition: P-PRAS40 and P-S6, western blot
# BT474 cells = test: Cell colony formation assay; type: cell-based; settings: 14 days
# PC3 cells = test: Cell proliferation assay; type: cell-based, human; settings: 5 days
# T-AKT [2] = test: T-AKT degradation in PC3 cells; type: cell-based, human; settings: for T-AKT level after washout: 48 h post-treatment
# MDA-MB-468 cells = test: Cell proliferation assay; type: cell-based; settings: 5 days
# P-PRAS40, P-S6 = test: Downstream signaling in PC3 cells; settings: for downstream signaling inhibition after washout: 1 μM for 24 h, then washout
# [3] = Mouse pharmacokinetic study; type: in vivo, mice; settings: male, Swiss Albino, plasma, ip, 150 mg/kg
# PC-3 xenografts [4] = settings: PC3 xenograft, 75 mg/kg once daily IP; cited from earlier work
# T-AKT [5] = test: Competition; type: cell-based, human; settings: PC3 cells, then compound 24 h
# T-AKT, P-AKT, P-PRAS40 = test: Western blotting analysis of xenograft tumor samples; type: in vivo, mice; settings: PC3 xenograft, 75 mg/kg once daily IP, end of study
# PC-3 xenografts [6] = type: in vivo; settings: PC3 xenograft mice, 75 mg/kg once daily IP, 22 days
# [7] = BT474 cells, 1 μM, western blot
molecule,measurement,setting,value
"Cc1ncsc1-c1ccc([C@H](C)NC(=O)[C@@H]2C[C@@H](O)CN2C(=O)[C@@H](NC(=O)CCCCCCCCCC(=O)N2CCN(CC[C@H](NC(=O)C3(N)CCN(c4ncnc5[nH]ccc45)CC3)c3ccc(Cl)cc3)CC2)C(C)(C)C)cc1 [Compound 23, 4-Amino-N-((S)-1-(4-chlorophenyl)-3-(4-(11-(((S)-1-((2S,4R)-4-hydroxy-2-(((S)-1-(4-(4-methylthiazol-5-yl)phenyl)ethyl)carbamoyl)-pyrrolidin-1-yl)-3,3-dimethyl-1-oxobutan-2-yl)amino)-11-oxoundecanoyl)piperazin-1-yl)propyl)-1-(7H-pyrrolo[2,3-d]-pyrimidin-4-yl)piperidine-4-carboxamide]",AKT (T-AKT) degradation,"total AKT (T-AKT); BT474 cells, 1, 5 and 10 μM",did not show significant difference from 19
same,downstream signaling inhibition,"[1]; BT474 cells, 1, 5 and 10 μM",did not show significant difference from 19
same,inhibition of colony formation,BT474 cells,did not show significant difference from 19
"CN1C(=O)CCC(N2C(=O)c3cccc(NCCOCCOCCOCCOCCOCCC(=O)N4CCN(CC[C@H](NC(=O)C5(N)CCN(c6ncnc7[nH]ccc67)CC5)c5ccc(Cl)cc5)CC4)c3C2=O)C1=O (stereo partly drawn) [Compound 43, 4-Amino-N-((1S)-1-(4-chlorophenyl)-3-(4-(1-((2-(1-methyl-2,6-dioxopiperidin-3-yl)-1,3-dioxoisoindolin-4-yl)amino)-3,6,9,12,15-pentaoxaoctadecan-18-oyl)piperazin-1-yl)propyl)-1-(7H-pyrrolo-[2,3-d]pyrimidin-4-yl)piperidine-4-carboxamide]",GI50,PC3 cells,inactive
same,T-AKT protein level,"T-AKT [2]; concentrations up to 10 μM, 24 h",did not reduce the T-AKT protein level
same,GI50,MDA-MB-468 cells,inactive
"NC1(C(=O)N[C@@H](CCN2CCN(C(=O)CCOCCOCCOCCOCCOCCNc3cccc4c3C(=O)N(C3CCC(=O)NC3=O)C4=O)CC2)c2ccc(Cl)cc2)CCN(c2ncnc3[nH]ccc23)CC1 (stereo partly drawn) [Compound 35, 4-Amino-N-((1S)-1-(4-chlorophenyl)-3-(4-(1-((2-(2,6-dioxopiperidin-3-yl)-1,3-dioxoisoindolin-4-yl)amino)-3,6,9,12,15-pentaoxaoctadecan-18-oyl)piperazin-1-yl)propyl)-1-(7H-pyrrolo[2,3-d]-pyrimidin-4-yl)piperidine-4-carboxamide]",downstream signaling inhibition after washout,"P-PRAS40, P-S6; 24 h post-treatment",near fully recovered
same,AKT protein level after washout,"T-AKT [2]; 1 μM for 24 h, then washout, 24 h post-treatment",rebounded substantially
same,T-AKT level after washout,"T-AKT [2]; 1 μM for 24 h, then washout",completely recovered
same,inhibition of phosphorylation of ribosomal protein S6,"[1]; BT474 cells, 1, 5 and 10 μM, among 32–38",most effective in inhibiting the phosphorylation of ribosomal protein S6
same,AUC,[3],32500 ng·h/mL
same,Cmax,[3],8 µM
same,Tmax,[3],1 h
"4-Amino-N-[(1S)-1-(4-chlorophenyl)-3-hydroxypropyl]-1-(7H-pyrrolo[2,3-d]pyrimidin-4-yl)piperidine-4-carboxamide [AZD5363, reference compound]",downstream signaling inhibition after washout,"P-PRAS40, P-S6; 24 h post-treatment",near fully recovered
same,PRAS40 and S6 phosphorylation,"P-PRAS40, P-S6; 1 μM, 24 h",effectively inhibited PRAS40 and S6 phosphorylation
same,T-AKT protein level,"total AKT (T-AKT); BT474 cells, 1 μM",downregulated the T-AKT protein level
same,GI50,PC3 cells,6.5 ± 2.9 µM
same,AKT protein level,"T-AKT [2]; 1 μM, 24 h",did not significantly reduce the AKT protein level
same,GI50,MDA-MB-468 cells,3.8 ± 1.6 µM
same,downstream signaling (PRAS40 and S6 phosphorylation),[1]; [7],effectively inhibited the phosphorylation of downstream PRAS40 and ribosomal protein S6
same,phosphorylated AKT level,[1]; [7],paradoxically upregulated the phosphorylated AKT level
same,tumor growth inhibition,PC-3 xenografts [4],75%
"Cc1ncsc1-c1ccc(CNC(=O)[C@@H]2C[C@@H](O)CN2C(=O)[C@@H](NC(=O)CCCCCCCCCCC(=O)N2CCN(CC[C@H](NC(=O)C3(N)CCN(c4ncnc5[nH]ccc45)CC3)c3ccc(Cl)cc3)CC2)C(C)(C)C)cc1 [Compound 20, 4-Amino-N-((S)-1-(4-chlorophenyl)-3-(4-(12-(((S)-1-((2S,4R)-4-hydroxy-2-((4-(4-methylthiazol-5-yl)benzyl)carbamoyl)pyrrolidin-1-yl)-3,3-dimethyl-1-oxobutan-2-yl)amino)-12-oxododecanoyl)-piperazin-1-yl)propyl)-1-(7H-pyrrolo[2,3-d]pyrimidin-4-yl)-piperidine-4-carboxamide]",AKT degradation after pretreatment with MLN4924 or MG-132,T-AKT [5]; 2 h pretreatment,significantly diminished the AKT degradation effect
same,AKT degradation after pretreatment with excess AZD5363,T-AKT [5]; AZD5363 (1 μM) 2 h,rescued the AKT protein level
same,AKT degradation after pretreatment with excess VHL ligand VHL-2,T-AKT [5]; VHL-2 (1 μM) 2 h,restored the AKT protein level effectively
same,downstream signaling inhibition after washout,"P-PRAS40, P-S6; 48 h post-treatment",partially recovered
same,time to complete depletion of T-AKT,T-AKT [2]; 1 μM,≤ 8 h
same,T-AKT level after washout,"T-AKT [2]; 1 μM for 24 h, then washout",partially recovered
same,duration of sustained AKT degradation post treatment,T-AKT [2]; washout experiments,1 to 2 days
same,downstream signaling inhibition,"[1]; BT474 cells, 1, 5 and 10 μM",slightly enhanced downstream signaling inhibition compared to 19
same,inhibition of colony formation,BT474 cells,highly effective in inhibiting colony formation; also recorded: effectively inhibited colony formation
same,T-AKT and P-AKT in tumor samples,"T-AKT, P-AKT, P-PRAS40",substantially degraded T-AKT and P-AKT
same,downstream signaling (PRAS40 phosphorylation) in tumor samples,"T-AKT, P-AKT, P-PRAS40",effectively inhibited the downstream signaling
same,tolerability,PC-3 xenografts [6],well tolerated
